“Also recorded” adds a separate entry of the source. A value given as a limit tells only on which side of the number the result lay.

For experiment [1], the system named is spiral ganglion neurons. Kind of experiment: In vitro phenotypic screening assay of neurite length in spiral ganglion cultures. Particulars: for lowest effective dose for stimulating neurite growth (neurite length dose response) / effect on neurite length: spiral ganglion cultures; for lowest effective dose for stimulating neurite growth (neurite length dose response): cumulative percent histograms of neurite length vs DMSO control, highest dose tested 25 μM for Pravastatin; for effect on neurite length: compound in culture media; for effect on neurite length at 10 μM: media containing compound at 10 μM, DMSO negative control, 4 replicate cultures. It counts as cell-based, mouse. The source says:
The in vitro phenotypic screen for spiral ganglion neurons is designed to identify both survival promoting and neurite promoting compounds. The screening procedure focuses on the survival, neurite initiation and neurite elongation steps of the experimental model (FIG. 5A-C). […] Newborn mouse pups served as a source for preparing primary cultures of the spiral ganglia from 16 cochleas. From these cochleas, 192 cultures in a 384 well plate that enables screening of 45 compounds and 3 controls for each dissection.
The screening approach preferably uses automated imaging and computer assisted data analysis. […] Populations of neurites are measured and graphed as cumulative percent histograms of neurite length. In these graphs, a shift to the right means that the population had longer neurites.
CD-1 mice (Charles River Laboratories, Wilmington Mass. [US]), age newborn, were used for cultures that test neurite length; postnatal day 1-2 mice were used for cultures that test survival. Mice were anesthetized by cooling at −80° C. for 4 minutes and euthanized by aseptic decapitation.
Cultures were prepared by a modification of the procedure previously reported and modified (Whitlon et al., Neuroscience 138, 653-662 (2006); Lie et al., Neuroscience 169, 855-862 (2010); Whitlon et al. Neuroscience 146, 833-840 (2007); Whitlon et al., Neuroscience 161, 227-235 (2009)). To increase the number of cultures produced from one dissecting session while maintaining consistency in the preparations, the number of animals was increased to 8 (16 cochleas, a practical limit) and the volume of the cultures was decreased to 50 μl. Cells derived from the equivalent of […] ganglia were plated in each well. These changes allowed the material from each dissection session to be cultured in 192 wells of a standard 384 well plate. Each dissection session could accommodate 3 controls and 45 compounds in quadruplicate. The cochlear capsule was opened and the tissue was treated with Dispase, 5 units/ml. After washing, the cochlea was removed from its capsule. The cochlear epithelium, spiral ligament and stria were dissected away. […] Both were then diluted in medium and added to the wells 22 hours after plating. Cultures were fixed 24 hours later with 4% paraformaldehyde in 0.1M sodium phosphate buffer, pH 7.2 for 45 minutes. Conditions were tested in quadruplicate. […] Negative controls were the vehicles DMSO (0.17%) and water (0.17%).
Fixed cultures were immunolabeled for the neural βIII tubulin using the mouse monoclonal antibody TuJ1 and Alexa Fluor 594 tagged secondary antibody as described for immunofluorescent labeling (Whitlon et al. Neuroscience 161, 227-235 (2009)). Nuclei were visualized with Nuclear Yellow. The labeled cultures were preserved with one drop of DAKO fluorescent mounting medium in each well.
The immunolabeled 384 well plates were loaded into an Image Xpress automatic imager for image acquisition.

The test system of experiment [2] is PTS noise exposed guinea pigs. Kind of experiment: Guinea pig model of PTS, auditory brainstem response (ABR) thresholds after noise exposure. It is filed as in vivo. The note with it: left ear infused with 50 μM Fluvastatin, 250 μL over 28 days by miniosmotic pump, from noise exposure on; hearing measured in contralateral right ear. From the text:
A testing method with a guinea pig model of PTS was developed for this purpose. Compounds were introduced into the left ear of the subject with a cannula attached to a miniosmotic pump. Because the cannula is physically within the cochlea, it had the possibility of interfering with sound transfer in the cochlea, and thereby interfering with auditory brain response (ABR) measurements. For this reason, the compound was delivered via cannula to the left ear, but tested for its effect in the contralateral ear, taking advantage of the connection between cochlear fluids and the cerebral spinal fluid. Animals were subjected to an sound injury causing PTS. Fluvastatin was delivered in vivo to the left ear at 50 times the concentration that was effective for stimulating neurite growth in vitro and ABRs were evaluated in the contralateral, right cochleas. […] The compound was first evaluated for the ability to provide a protective effect from hearing loss attributed to high level noise, wherein the compound was delivered at the same time as the noise exposure and for 4 weeks thereafter. […]
Drug efficiency was tested in guinea pigs, 200-500 g in body weight. […] Baseline cochlear function was determined with auditory brainstem responses. Sound levels to evoke a visual ABR response were determined for pure tones at selected frequencies between 2 and 32 kHz and for acoustic clicks. […]

As to `CC[C@H](C)C(=O)O[C@H]1C[C@H](O)C=C2C=C[C@H](C)[C@H](CC[C@@H](O)C[C@@H](O)CC(=O)O)[C@H]21` [Pravastatin], the “lowest effective dose for stimulating neurite growth (neurite length dose response)” value (from here on “lowest effective dose”) in experiment [1] is above 25 µM.

On to `CCC(C)(C)C(=O)O[C@H]1C[C@@H](C)C=C2C=C[C@H](C)[C@H](CC[C@@H]3C[C@@H](O)CC(=O)O3)[C@H]21` [Simvastatin, (1S,3R,7S,8S,8aR)-8-{2-[(2R,4R)-4-hydroxy-6-oxooxan-2-yl]ethyl}-3,7-dimethyl-1,2,3,7,8,8a-hexahydronaphthalen-1-yl 2,2-dimethylbutanoate], for which, in experiment [1], the “lowest effective dose” value turned out to be 5 µM.

On to `O=c1[nH]ccc2c(S(=O)(=O)N3CCCNCC3)cccc12` [Hydroxyl Fasudil], for which the “effect on neurite length” value in experiment [1] is given as “stimulated neurite length”.

With `O=C(O)C[C@H](O)C[C@H](O)/C=C/c1c(C2CC2)nc2ccccc2c1-c1ccc(F)cc1` [Pitavastatin, (3R,5S,6E)-7-[2-cyclopropyl-4-(4-fluorophenyl)quinolin-3-yl]-3,5-dihydroxyhept-6-enoic acid], in experiment [1] (Pitavastatin at 2 μM or higher, H1152 16.5 μM), the “measured lengths of neurites compared with positive control H1152” value is reported as “as long or longer”. Also, in experiment [1], the “effect on neurite length” value is on record as “increase neurite length; also recorded: effective up to the highest dose tested” and the “lowest effective dose” value is 2 µM.

For the compound `CC(C)=CCC/C(C)=C/CC/C(C)=C/CC/C(C)=C/CO` [geranylgeraniol], in experiment [1], the “effect on neurite length at 10 μM” value is listed as “no effect upon growth of neurite length”.

Regarding `Cc1cncc2cccc(S(=O)(=O)N3CCCNC[C@@H]3C)c12` [H1152, 4-methyl-5-{[(2S)-2-methyl-1,4-diazepan-1-yl]sulfonyl}isoquinoline], the “effect on neurite length” value in experiment [1] was “stimulate neurite length; also recorded: increased neurite lengths”.

On to `O=S(=O)(c1cccc2cnccc12)N1CCCNCC1` [Fasudil], for which the “effect on neurite length” value in experiment [1] is given as “stimulated neurite length”.

On to `CC(C)n1c(/C=C/[C@H](O)C[C@H](O)CC(=O)O)c(-c2ccc(F)cc2)c2ccccc21` (stereo in doubt) [Fluvastatin, (3S,5R,6E)-7-[3-(4-fluorophenyl)-1-(propan-2-yl)-1H-indol-2-yl]-3,5-dihydroxyhept-6-enoic acid], for which, in experiment [2], the “protection from hearing loss / permanent threshold shift (ABR threshold change)” value is given as “effective protection by preventing hearing loss; also recorded: PTS injury could not be induced”. Also, the “lowest effective dose” value in experiment [1] came out at 1 µM.

Consider `COCc1c(C(C)C)nc(C(C)C)c(/C=C/[C@@H](O)C[C@@H](O)CC(=O)O)c1-c1ccc(F)cc1` [Cerivastatin], for which the “effect of geranylgeraniol on the statin's stimulation of neurite length” value in experiment [1] (media containing both statin (Cerivastatin 10 μM or Fluvastatin 5 μM) and geranylgeraniol (10 μM)) is listed as “effectively blocked the stimulatory effect”. In addition, in experiment [1], the “effect on neurite length at 10 μM” value is given as “increased neurite length” and the “lowest effective dose” value amounted to 1 µM. For the same compound, the “neurite growth compared with positive control H1152” value in experiment [1] (screen of NIH Clinical Collection, FIG. 11A) was “stimulated neurite growth as well as H1152”.

Turning to `CC(C)c1c(C(=O)Nc2ccccc2)c(-c2ccccc2)c(-c2ccc(F)cc2)n1CC[C@@H](O)C[C@@H](O)CC(=O)O` [Atorvastatin, (3R,5R)-7-[2-(4-fluorophenyl)-3-phenyl-4-(phenylcarbamoyl)-5-(propan-2-yl)-1H-pyrrol-1-yl]-3,5-dihydroxyheptanoic acid], the “lowest effective dose” value in experiment [1] is 10 µM.

For `CC[C@H](C)C(=O)O[C@H]1C[C@@H](C)C=C2C=C[C@H](C)[C@H](CC[C@@H]3C[C@@H](O)CC(=O)O3)[C@H]21` [Lovastatin, (1S,3R,7S,8S,8aR)-8-{2-[(2R,4R)-4-hydroxy-6-oxooxan-2-yl]ethyl}-3,7-dimethyl-1,2,3,7,8,8a-hexahydronaphthalen-1-yl (2S)-2-methylbutanoate], in experiment [1], the “lowest effective dose” value was 5 µM.

The record behind these values is US9517233B2, “Local cochlear application of statins for stimulating neurite regrowth in the cochlea” (Northwestern University, priority 2012, dated 2016).
